Where two headings read alike, the source gives them in different places.
Test: Single ascending dose plasma pharmacokinetics in healthy volunteers
Format: in vivo
Conditions: human
Procedure: In the single-dose phase, participants were randomized 6:2 to paltusotine (1.25, 2.5, 5, 10, 20, 40, and 60 mg) or placebo in 7 cohorts (S1 to S7). Cohorts comparing oral bioavailability of solution versus capsules and the effect of a standardized high-fat, high-calorie breakfast on oral bioavailability of the capsule formulation employed the 10 mg dose level. In the multiple-dose phase, participants were randomized 6:3 to once-daily oral paltusotine capsules or placebo at doses of 5 mg for 7 days (M1, Day Last = Day 7), and 10, 20, and 30 mg daily for 10 days (M2, M3, M4, Day Last = Day 10). The initial starting dose of 1.25 mg in the single-dose phase was selected for this study based on nonclinical pharmacologic activity, pharmacokinetics, and safety studies. Subsequent doses were either specified in the protocol or were selected by the safety review committee responsible for the safety oversight of the study.
Single-dose cohorts: Plasma samples were collected on Day 1 (pre-dose, every 15 min up to 90 min post-dose, then at 2, 3, 4, 6, 8, 10, 12, 18, 24, 48, 72, 96, 120, and 144 h post-dose). Multiple-dose cohorts: For the 5 mg cohort, plasma samples were collected on Day 1 (pre-dose, every 15 min up to 90 min post-dose, then at 2, 3, 4, 6, 8, 10, 12, and 18 h post-dose), Days 2–6 (pre-dose and 2 h post-dose), Day 7 (same time points as Day 1, followed by samples at 18, 24, 48, 72, 96, 120, and 144 h post-dose). For all other multiple-dose cohorts, plasma samples were collected on Day 1 (pre-dose, every 15 min up to 90 min post-dose, then at 2, 3, 4, 6, 8, 10, 12, and 18 h post-dose), Days […] (same time points as Day 1, followed by samples at 18, 24, 48, 72, 96, 120, 144, 192, and 240 h post-dose).
Plasma pharmacokinetic sample analysis for paltusotine was determined using validated procedures by CPR Pharma Services (Thebarton, Australia). Briefly, plasma paltusotine concentrations were determined by high-pressure liquid chromatography (HPLC) coupled with tandem mass spectrometry detection (MS/MS). Deuterated paltusotine was used as an internal standard. Supported liquid extraction was used to extract paltusotine and the internal standard. The analyte was separated by HPLC using an ACE C18-AR column (Advanced Chromatography Technologies, Ltd, Aberdeen, Scotland), and the eluates were monitored by an API 4000™ LC–MS/MS System (Sciex, Framingham, MA) in positive multiple reaction monitoring mode. The extract was then assayed against a calibration curve. The data were acquired and integrated by the data acquisition software Analyst® (Sciex), linked directly to the API 4000™ LC–MS/MS System, and then processed using Watson LIMS™ software (Thermo Scientific, Waltham, MA), where applicable. The calibration range was 0.100 to 100 ng/mL using 100 μL of plasma, with a lower limit of quantification of 0.100 ng/mL. The inter-assay accuracy was 94% to 100%, and the inter-assay precision (% CV) was between 6.1% and 15%.
For assessing pharmacokinetics of paltusotine, the single-dose pharmacokinetic population included all randomized participants who received any amount of study drug with sufficient plasma concentration data. For the multiple-dose cohorts, only participants who received all doses were included. The relative bioavailability of the capsule formulation was determined by comparing its pharmacokinetic parameters with those of the solution formulation at the 10 mg dose. Food effect was determined at the same dose by comparing pharmacokinetic parameters in the fasting state to those when paltusotine was administered with a high-fat, high-calorie meal. For both formulation and food effect, ANOVA with treatment as a fixed effect and subject as a random effect was performed. Data for peak concentration (Cmax), AUC0-last, and AUC0-inf were natural log-transformed.

[1] = oral, single dose 40 mg capsules, fasted, mean ± SD
[2] = oral, single dose 60 mg capsules, fasted, mean ± SD
[3] = single dose 1.25 mg oral solution, fasted, mean ± SD
[4] = single dose 2.5 mg oral solution, fasted, mean ± SD
[5] = single dose 5 mg oral solution, fasted, mean ± SD
[6] = single dose 10 mg oral solution, fasted, mean ± SD
[7] = single dose 20 mg oral solution, fasted, mean ± SD

For Cl.N#Cc1cccc(-c2ccc3ncc(-c4cc(F)cc(F)c4)c(N4CCC(N)CC4)c3c2)c1O [paltusotine, 3-[4-(4-Aminopiperidin-1-yl)-3-(3,5-difluorophenyl)quinolin-6-yl]-2-hydroxybenzonitrile hydrochloride], which half-life (oral, overall summary (abstract), read-out: half-life of elimination (converted)) is on record?
Its half-life is roughly 30 h.

What about the half-life (oral, sampling up to 144 h post-dose (single-dose cohorts and 5 mg multiple-dose cohort), range, read-out: t1/2 (converted)) of the same compound?
The half-life was 22 to 34 h.

What about the AUC(0-inf) [1] of the same compound?
Its AUC(0-inf) is 2650 ± 1200 ng·h/mL.

And the Cmax [1]?
The Cmax was 185 ± 118 ng/mL.

And the Tmax (oral, single dose 40 mg capsules, fasted, mean ± SD, read-out: Tmax)?
The Tmax was 3.4 ± 1.1 h.

What about the half-life (oral, single dose 40 mg capsules, fasted, mean ± SD, read-out: t1/2 (converted)) of the same compound?
Its half-life is 27 ± 3.1 h.

What about the AUC(0-inf) [2] of the same compound?
Its AUC(0-inf) is 2300 ± 1060 ng·h/mL.

And the Cmax [2]?
The Cmax was 154 ± 77.6 ng/mL.

What about the Tmax (oral, single dose 60 mg capsules, fasted, mean ± SD, read-out: Tmax) of the same compound?
The Tmax was 3 ± 1.2 h.

And the half-life (oral, single dose 60 mg capsules, fasted, mean ± SD, read-out: t1/2 (converted))?
Its half-life is 25 ± 2.1 h.

And the AUC(0-inf) [3]?
Its AUC(0-inf) is 122 ± 25.7 ng·h/mL.

What about the Cmax [3] of the same compound?
Its Cmax is 9.81 ± 1.56 ng/mL.

And the Tmax (single dose 1.25 mg oral solution, fasted, mean ± SD, read-out: Tmax)?
The Tmax was 1.3 ± 0.44 h.

And the half-life (single dose 1.25 mg oral solution, fasted, mean ± SD, read-out: t1/2 (converted))?
The half-life was 22 ± 5.5 h.

And the AUC(0-inf) [4]?
Its AUC(0-inf) is 320 ± 66.3 ng·h/mL.

What about the Cmax [4] of the same compound?
The Cmax was 22.7 ± 4.74 ng/mL.

And the Tmax (single dose 2.5 mg oral solution, fasted, mean ± SD, read-out: Tmax)?
Its Tmax is 1.6 ± 0.8 h.

What about the half-life (single dose 2.5 mg oral solution, fasted, mean ± SD, read-out: t1/2 (converted)) of the same compound?
Its half-life is 29 ± 9 h.

And the AUC(0-inf) [5]?
Its AUC(0-inf) is 590 ± 93.7 ng·h/mL.

And the Cmax [5]?
The Cmax was 48.1 ± 7.05 ng/mL.

And the Tmax (single dose 5 mg oral solution, fasted, mean ± SD, read-out: Tmax)?
Its Tmax is 1.3 ± 0.41 h.

And the half-life (single dose 5 mg oral solution, fasted, mean ± SD, read-out: t1/2 (converted))?
The half-life was 25 ± 9.4 h.

And the AUC(0-inf) [6]?
The AUC(0-inf) was 1650 ± 464 ng·h/mL.

And the Cmax [6]?
Its Cmax is 95.2 ± 19.3 ng/mL.

And the Tmax (single dose 10 mg oral solution, fasted, mean ± SD, read-out: Tmax)?
Its Tmax is 2.2 ± 1.3 h.

And the half-life (single dose 10 mg oral solution, fasted, mean ± SD, read-out: t1/2 (converted))?
Its half-life is 29 ± 4.3 h.

What about the AUC(0-inf) [7] of the same compound?
Its AUC(0-inf) is 2960 ± 963 ng·h/mL.

What about the Cmax [7] of the same compound?
Its Cmax is 167 ± 29.1 ng/mL.

What about the Tmax (single dose 20 mg oral solution, fasted, mean ± SD, read-out: Tmax) of the same compound?
Its Tmax is 1.9 ± 1 h.

What about the half-life (single dose 20 mg oral solution, fasted, mean ± SD, read-out: t1/2 (converted)) of the same compound?
Its half-life is 29 ± 5 h.

And the Tmax (single-dose oral solution, fasted, range across 1.25-20 mg, read-out: Tmax (time of median peak concentrations))?
Its Tmax is 1.3 to 2.2 h.

What about the half-life (single-dose oral solution, fasted, range across 1.25-20 mg, read-out: apparent terminal elimination t1/2) of the same compound?
The half-life was 22 to 29 h.
